The record followed here is publication PMC5114273, “Activity of Scorpion Venom-Derived Antifungal Peptides against Planktonic Cells of Candida spp. and Cryptococcus neoformans and Candida albicans Biofilms” (Frontiers in Microbiology, 2016).

The test system of series [1] is Candida spp. and C. neoformans. The experiment in a line: Broth microdilution antifungal assay, summary over the strains tested. Particulars: data not shown. In kind it is cell-based, Candida spp.; Cryptococcus neoformans. From the text: (§1) Candida albicans strain SC 5314 (ATCC MYA-2876) was provided by Dr. Joshua Nosanchuk (New York, NY, USA). C. glabrata ATCC 90030, C. parapsilosis ATCC 22019, and C. tropicalis ATCC 750 were provided by Dr. Érika Kioshima (Universidade Estadual de Maringá, Paraná, Brazil). C. neoformans var. grubii strain H99 (serotype A, ATCC 208821) was provided by Dr. John Perfect (Durham, NC, USA). C. neoformans var. neoformans B3501 (serotype D, ATCC 34873) was obtained from ATCC (Manassas, VA, USA). All strains were stored as frozen stocks in 35% glycerol at -80°C. Before each experiment, all Candida spp. strains were grown in Sabouraud’s dextrose broth overnight at 30°C with agitation. C. neoformans strains were grown in the same conditions for 24 h. Fungal cells were collected by centrifugation, washed three times in phosphate buffered saline (PBS) (137 mM NaCl, 2.7 mM KCl, 10 mM Na2HPO4, 2 mM KH2PO4) and inoculated in Roswell Park Memorial Institute (RPMI) 1640 medium supplemented with L-glutamine and buffered to pH 7.0 with 165 mM 3-(N-morpholino)propanesulfonic acid for experiments described below.
In vitro antifungal assays were performed according to broth microdilution susceptibility test from Clinical and Laboratory Standards Institute (CLSI) M27-A3 guidelines with some modifications. Briefly, twofold serial dilutions of each peptide were prepared in 96-well polystyrene microplates to a final volume of 50 μL. Amphotericin B (Amp B; A2942, Sigma-Aldrich), a known antifungal drug, was used as a positive control. Final concentrations of each peptide and Amp B ranged from 100 to 0.78 μM and 16 to 0.03 μg/mL, respectively, except in tests with C. glabrata and C. parapsilosis, where the final peptide concentration ranged from 400 to 0.78 μM. In each plate, wells were included without peptide as a growth control. Then, 50 μL of the adjusted inoculum in RPMI-1640 medium were added to each well to a final concentration of 2 × 10^3 cells/mL for Candida spp. and 10^4 cells/mL for C. neoformans strains. The plates were incubated at 37°C for 24 and 48 h, respectively. […]

The nature of series [2]: Circular dichroism, α-helix content. In kind it is physicochemical. Particulars: CD, 0.2 mg/mL, 37°C, from [θ]208. The protocol:
Circular dichroism (CD) assays were carried out using Jasco J-815 spectropolarimeter equipped with a Peltier-type temperature controller. Peptides (0.2 mg/mL) were analyzed in water at 37°C in absence or the presence of trifluoroethanol (TFE) (10, 30, and 50%). The mean spectrum of three consecutive experiments was corrected for the baseline buffer contribution. The observed ellipticities were converted into molar ellipticity ([θ]) based on molecular mass per residue of 115 Da ([Adler et al., 1973]). The α helix secondary structure content (fθ) was estimated considering the values of [θ]208 nm as a function of TFE concentration using the following equation ([Greenfield and Fasman, 1969]): […]
A general note: Circular dichroism is the unequal absorption of left and right circularly polarised light.

The next series has as its system human erythrocytes. Kind of series: Hemolytic assay. In kind it is cell-based. The conditions noted are these: 1 h, 540 nm; for Hemolysis: all the tested concentrations (100 to 0.78 μM), 3% hematocrit in PBS. From the text: Considering the potential use of the AMPs as treatment against pathogens, even if in a more distant future, some of their properties against host cells should be addressed. To achieve this goal, we have performed hemolytic assay to evaluate if these molecules are toxic or harmless to red blood cells. Further, we have also tested the possible cytotoxicity of those peptides against other mammalian cell types by following the cell viability score after treatment. The solution of human red blood cells was treated with the peptide at levels ranging from 100 to 0.78 μM. Whole human blood was collected from healthy donors in vials with ethylenediaminetetraacetic acid (EDTA). The red blood cells were separated by centrifugation and resuspended in PBS. After the centrifugation (800 g, 5 min at 4 ± 1°C) the supernatant was removed and the red blood cells pellet was resuspended to a 3% hematocrit in sterile water (considered as 100% hemolysis) and PBS (taken as blank for spectrophotometric measurement). Fifty microliters of the 3% cell suspension in PBS were added to different final concentrations of the peptide (v/v) in a 96-well polystyrene microplate and then incubated for 1 h ([Nahar et al., 2008]; [Zhao et al., 2009]; [Qi et al., 2010]). The microplates were centrifuged and the supernatant was collected and analyzed at 540 nm using a microplate spectrophotometer. The percentage of hemolysis was calculated relative to the positive control as performed by [Nahar et al. (2008)]. The procedures were approved by the Ethics Committee on Human Research of Faculty of Medicine/University of Brasília (UnB) and conform to FDA standards (UnBDoc no. 66704/2016).

Another series relates to C. tropicalis (ATCC 750). Kind of series: microbe, parasite or virus in culture. In kind it is cell-based, Candida tropicalis. Particulars: RPMI-1640 pH 7.0, 2 × 10^3 cells/mL, 37°C, 24 h; complete inhibition of visible growth; at least three experiments; read-out: Minimum inhibitory concentration, C. tropicalis (ATCC 750).
Text: as §1
(§2) In vitro antifungal assays were performed according to broth microdilution susceptibility test from Clinical and Laboratory Standards Institute (CLSI) M27-A3 guidelines with some modifications. Briefly, twofold serial dilutions of each peptide were prepared in 96-well polystyrene microplates to a final volume of 50 μL. Amphotericin B (Amp B; A2942, Sigma-Aldrich), a known antifungal drug, was used as a positive control. Final concentrations of each peptide and Amp B ranged from 100 to 0.78 μM and 16 to 0.03 μg/mL, respectively, except in tests with C. glabrata and C. parapsilosis, where the final peptide concentration ranged from 400 to 0.78 μM. In each plate, wells were included without peptide as a growth control. Then, 50 μL of the adjusted inoculum in RPMI-1640 medium were added to each well to a final concentration of 2 × 10^3 cells/mL for Candida spp. and 10^4 cells/mL for C. neoformans strains. The plates were incubated at 37°C for 24 and 48 h, respectively. The strains of C. neoformans were also incubated with shaking (200 rpm). […] The experiments were performed at least three times on separate dates.

Series [3] concerns peritoneal macrophages of BALB/c mice. Kind of series: Cytotoxic test using peritoneal macrophages (LDH release). In kind it is cell-based, mouse. The conditions noted are these: 24 h; for Viability of peritoneal macrophages: whole range of peptide concentrations. The procedure: BALB/c mice were injected with thioglycolate 72 h before peritoneal macrophages were harvested. They were diluted to a concentration of 10^6 cell/mL in RPMI-1640 supplemented with penicillin/streptomycin (100 U/mL, 100 µg/mL), 2 mM L-glutamine, 2 mM non-essential amino acids, 1 mM sodium pyruvate (all reagents from Sigma-Aldrich, St Louis, MO, USA) and 10% fetal bovine serum (FBS), and incubated in 96-well polystyrene microplates at 37°C, 5% CO2 for 24 h. The peptides were added then and cells were further incubated for 24 h as described previously ([Cruz et al., 2005]). Three independent experiments were performed. Cytotoxic activity was evaluated by the release of cytoplasmic enzyme lactate dehydrogenase due to cell lysis using the Cytotox kit (Promega). Briefly, at the end of the incubation period, supernatants were collected, the adhered cells were washed and the toxicity was determined according to the manufacturer’s protocol. The procedures were approved by the Ethics Committee on Animal Research of Institute of Biology (UnBDOC 52657/2011)/University of Brasília (UnB).
(LDH leaks from cells whose membrane has failed.)

In series [4] the test system is C. neoformans (H99 serotype A). Kind of series: microbe, parasite or virus in culture. The conditions noted are these: RPMI-1640 pH 7.0, 10^4 cells/mL, 37°C, 48 h, shaking 200 rpm; at least three experiments; read-out: Minimum inhibitory concentration, C. neoformans (H99 serotype A). In kind it is cell-based, Cryptococcus neoformans var. grubii.
Text: as §1, §2

Series [5] deals with C. neoformans (B3501 serotype D). The experiment in a line: microbe, parasite or virus in culture. In kind it is cell-based, Cryptococcus neoformans var. neoformans. The conditions noted are these: RPMI-1640 pH 7.0, 10^4 cells/mL, 37°C, 48 h, shaking 200 rpm; at least three experiments; read-out: Minimum inhibitory concentration, C. neoformans (B3501 serotype D).
Text: as §1, §2

The next series concerns C. albicans (SC5314). The experiment in a line: microbe, parasite or virus in culture. In kind it is cell-based, Candida albicans. The conditions noted are these: RPMI-1640 pH 7.0, 2 × 10^3 cells/mL, 37°C, 24 h; complete inhibition of visible growth; at least three experiments; read-out: Minimum inhibitory concentration, C. albicans (SC5314).
Text: as §1, §2

A further series deals with C. glabrata (ATCC 90030). The experiment in a line: microbe, parasite or virus in culture. In kind it is cell-based, Candida glabrata. The conditions noted are these: RPMI-1640 pH 7.0, 2 × 10^3 cells/mL, 37°C, 24 h; peptides 400 to 0.78 μM; at least three experiments; read-out: Minimum inhibitory concentration, C. glabrata (ATCC 90030).
Text: as §1, §2

For series [6], the system named is C. parapsilosis (ATCC 22019). The experiment in a line: microbe, parasite or virus in culture. In kind it is cell-based, Candida parapsilosis. Particulars: RPMI-1640 pH 7.0, 2 × 10^3 cells/mL, 37°C, 24 h; peptides 400 to 0.78 μM; at least three experiments; read-out: Minimum inhibitory concentration, C. parapsilosis (ATCC 22019).
Text: as §1, §2

Ends that are not written are not given here.

On to “EEDDLLGFSEEDLKAIKEHRAKNA-NH2 [ToAcP, anionic peptide from T. obscurus, LT576031]”, for which the “Antifungal activity in the tested concentrations” value (“Antifungal activity” below) in [1] (Candida spp. and C. neoformans) is “did not present antifungal activity”.

In the case of “FFGTLFKLLSKLIPGLMKLFSKLLER-NH2 [ToAP2S1, modified analog of ToAP2, C-terminally amidated]”, the “α-Helix content (%), TFE 10%” value in series [2] (TFE 10%) turned out to be 22.9%. Further, the “α-Helix content (%), TFE 30%” value in [2] (TFE 30%) is recorded as 24.3%. Moreover, in series [2] (TFE 50%), the “α-Helix content (%), TFE 50%” value was found to be 24.7%. Further, in series [2] (water, mean spectrum of three experiments), the “α-Helix content (%), water” value stood at 16.5%. Further, in series [1] (C. albicans, C. glabrata and C. neoformans H99), the “Antifungal activity” value was “did not show antifungal activity”. For the same substance, the “Hemolysis curve compared with ToAP2” value in the series with human erythrocytes (with concentrations up to 25 μM) is on record as “higher hemolysis curve”.

Consider “FFSLIPSLIGGLVSAIK-NH2 [ToAP4, NDBP subfamily 4 peptide from T. obscurus, amidated]”, for which the “Antifungal activity” value in series [1] (Candida spp. and C. neoformans) was “has not shown antifungal activity”.

For FIGMIPGLIGGLISAFK-NH2 [ToAP1], the MIC in the series with C. tropicalis (ATCC 750) is listed as 12.5 µM; in series [4] it was 25 µM; in series [5], 12.5 µM; with C. albicans (SC5314), 50 µM; with C. glabrata (ATCC 90030), above 400 µM; in [6], 200 µM. For the same substance, the “Viability of peritoneal macrophages” value in series [3] is given as “higher viability”. For the same substance, the Hemolysis result in the series with human erythrocytes is recorded as “lower than 50%”.

As for FIGMIPGLIGGLISAIK-NH2 [ToAP3], the MIC was 12.5 µM in the series with C. tropicalis (ATCC 750); 100 µM in series [4]; 25 µM in series [5]; 25 µM in the series on C. albicans (SC5314); above 400 µM in the series with C. glabrata (ATCC 90030); 100 µM in [6].

Turning to FLGMIPGLIGGLISAFK-NH2 [NDBP-4.23], the MIC in the series with C. tropicalis (ATCC 750) is 6.25 µM; in [4], 25 µM; in series [5], 12.5 µM; in the series on C. albicans (SC5314), 50 µM; in the series with C. glabrata (ATCC 90030) it was above 400 µM; in [6] it was 100 µM. Also, the “Concentrations showing low cytotoxicity” value in [3] (threshold of acceptable cytotoxicity 50% viability, three independent experiments) was below 25 µM. Further, in the series on human erythrocytes, the Hemolysis result was “lower than 50%”.

In the case of GILGKIWEGVKSLI [NDBP-5.8], the MIC in the series with C. tropicalis (ATCC 750) is 25 µM; in series [4], 100 µM; in [5] it was 50 µM; in the series on C. albicans (SC5314) it was 100 µM; with C. glabrata (ATCC 90030), above 400 µM; in series [6] it was 200 µM.

In the case of ILSAIWSGIKSLF-NH2 [NDBP-5.7], the MIC in the series with C. tropicalis (ATCC 750) is 25 µM; in [4] it was 25 µM; in [5], 12.5 µM; in the series with C. albicans (SC5314) it was 25 µM; in the series on C. glabrata (ATCC 90030) it was above 400 µM; in series [6], above 400 µM. In addition, in [3], the “Viability of peritoneal macrophages” value is given as “higher viability”. For the same substance, the Hemolysis percent entry with human erythrocytes (in concentrations up to 50 μM) is given as “higher than 50%”.
